Measured values taken from patent US4959370A, “Alkaloids of marine origin” (priority 1989, dated 1990).
Read-outs that look alike come from different tables or passages of the source.

Tests used:
[1] = system: fourth larval stage of N. brasiliensis; assay: In vitro anthelmintic activity against fourth larval stage (L4); type: cell-based, Nippostrongylus brasiliensis; conditions: 50 μg/ml, 37° C., seven days; for inhibition at 50 µg/mL: Nippostrongylus brasiliensis, 168 h
Procedure: To obtain the fourth larval stage (L4) of Nippostrongylus brasiliensis, rats were inoculated with 6,500 to 6,750 N. brsiliensis third stage larvae subcutaneously. Seventy-two hours later the rats were sacrificed and the fourth stage larvae harvested. Compounds of Formula (I) were tested at 50 μg/mL against the fourth larval stage of N. brasiliensis at approximately 50 L4/well. This mixture was incubated at 37° C. for a total of seven days and then read for activity. Parameters used to determine drug activity were motility, viability, and the ability of fourth stage larvae to molt to the adult, i.e., cast formation. A compound was defined as active if (1) cast formation was reduced by 40 percent or more; or (2) viability and motility together were reduced 40 percent or more. | Compound B is a compound of Formula (I) where R is methyl. *Percent cast | reduction was determined by the following: | **Percent viability reduction was determined by the | following: | ***Percent motility reduction was a subjective evaluation

[2] = target: T1, purified cloned reverse transcriptase (RT) (HIV-1 M:B_HXB2R, UniProt P04585); assay: In vitro reverse transcriptase inhibitory activity; type: biochemical; conditions: 400 μg/ml in 10 percent DMSO; 37° C., 0, 15, and 30 minutes; decrease in [3H] TTP incorporation vs controls
T1 construct: mature chain of Gag-Pol polyprotein
Procedure: The activity of purified cloned reverse transcriptase (RT), in the presence or absence of test compound, was assayed by measuring the incorporation of tritiated thymidine triphosphate ([^3 H] TTP) into a DNA chain using polyadenosine as the template and oligodeoxythymidine as the primer (Biochem. Pharm. 1987, Vol. 36, No. 24 pp. 4361-4362). The final concentration of the compounds tested for anti-RT activity was 400 μg/ml in 10 percent DMSO. Controls contained 10 percent DMSO only. After incubation at 37° C. for 0, 15, and 30 minutes, an aliquot of the incubation mixture was spotted on cellulose paper, washed in TCA-pyrophosphate solution to remove [^3 H] TTP, dried and analyzed for the rate of incorporation of radioactivity. The compounds which inhibited more than 50 percent of the enzyme activity, as determined by a decrease in radioactivity compared with controls, were considered active.

[3] = cast formation (molt to adult), read-out: PERCENT REDUCTION COMPARED TO CONTROL: Casts
[4] = subjective evaluation, read-out: PERCENT REDUCTION COMPARED TO CONTROL: Motility

| SMILES | PERCENT REDUCTION COMPARED TO CONTROL: Viability [1] [%] | inhibition at 50 µg/mL [1, 3] [%] | inhibition at 50 µg/mL [1, 4] [%] | inhibition at 400 µg/mL [2] [%] |
| --- | --- | --- | --- | --- |
| CN(C)c1c2c(c3nc4ccccc4c4c3c1N=C4)NCCC2=O [Compound B, plakinidine B] | 100 | 100 | 100 | – |
| CNc1c2c(c3nc4ccccc4c4c3c1N=C4)NCCC2=O [Compound A, plakinidine A] | 100 | 100 | 100 | 83 |
